This assay deals with T1, Human complement C1s enzyme (Homo sapiens, UniProt P09871).
T1 construct: purified from human serum, Complement Technology, Inc; purchased Complement Technology, Inc; host or cells: human serum
T1 sequence (P09871 438-688 limits assumed): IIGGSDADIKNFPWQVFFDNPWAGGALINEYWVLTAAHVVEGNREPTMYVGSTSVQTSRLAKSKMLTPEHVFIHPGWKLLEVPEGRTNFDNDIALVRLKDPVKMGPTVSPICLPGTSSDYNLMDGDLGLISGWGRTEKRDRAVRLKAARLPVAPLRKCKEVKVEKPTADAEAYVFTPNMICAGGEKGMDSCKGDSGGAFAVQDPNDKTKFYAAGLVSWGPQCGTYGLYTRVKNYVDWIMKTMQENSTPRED
T1 sequence (P09871 16-437 partner limits assumed): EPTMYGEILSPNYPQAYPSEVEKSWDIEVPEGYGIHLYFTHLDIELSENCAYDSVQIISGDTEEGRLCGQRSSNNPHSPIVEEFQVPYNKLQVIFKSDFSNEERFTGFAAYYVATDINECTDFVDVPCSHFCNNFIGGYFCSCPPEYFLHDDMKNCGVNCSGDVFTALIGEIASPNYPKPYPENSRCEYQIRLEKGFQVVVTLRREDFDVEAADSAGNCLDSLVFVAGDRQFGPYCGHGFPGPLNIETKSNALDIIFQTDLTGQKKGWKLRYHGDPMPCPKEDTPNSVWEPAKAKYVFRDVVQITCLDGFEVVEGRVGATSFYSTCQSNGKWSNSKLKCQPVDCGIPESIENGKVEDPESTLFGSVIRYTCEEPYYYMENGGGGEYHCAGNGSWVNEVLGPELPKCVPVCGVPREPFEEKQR
Nature of the assay: Human C1s Enzyme Assay. The class given is biochemical. As to conditions: human C1s 1.16 nM, 5 min preincubation, substrate Z-L-Lys-SBzl 100 μM, A405; read-out: C1s Protease Activity. A digest of the protocol: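 IC50 values were fitted by nonlinear regression to rates measured as A405 every 30 s for 30 min. The thioester substrate Z-L-Lys-SBzl and Ellman's reagent were each at 100 μM. Serum-derived C1s at 1.16 nM final had 5 min of room-temperature preincubation with compound (pH 7.5 Tris buffer, 1 M NaCl).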

SMILES strings stand for the structures.

In the case of `N=C(N)c1csc(CNC(=O)[C@@H]2C[C@@H](OC(F)F)CN2C(=O)CNC(=O)CCCOc2ccccc2)c1` [Compound 29, (2S,4R)-N-((4-carbamimidoylthiophen-2-yl)methyl)-4-(difluoromethoxy)-1-((4-phenoxybutanoyl)glycyl)pyrrolidine-2-carboxamide], the IC50 was below 100 nM. Consider `COC[C@H]1C[C@@H](C(=O)N[C@H](C)c2cc(C(=N)N)cs2)N(C(=O)CNC(=O)c2ccc(Oc3ccccc3)cc2)C1` (relative stereo) [Compound 252, (2S,4S*)-N-((R)-1-(4-carbamimidoylthiophen-2-yl)ethyl)-4-(methoxymethyl)-1-((4-phenoxybenzoyl)glycyl)pyrrolidine-2-carboxamide], for which the IC50 was below 100 nM. To `COCCOCCCC(=O)NCC(=O)N1[C@H]2C[C@@]2(C)C[C@H]1C(=O)NCc1cc(C(=N)N)cs1` [Compound 136, (1S,3S,5S)-N-((4-carbamimidoylthiophen-2-yl)methyl)-2-((4-(2-methoxyethoxy)butanoyl)glycyl)-5-methyl-2-azabicyclo[3.1.0]hexane-3-carboxamide] belongs 100 to 1000 nM. To `C[C@@]12C[C@@H]1N(C(=O)CNC(=O)CCCOC1CCCCC1)[C@H](C(=O)NCc1cc(C(=N)N)cs1)C2` [Compound 117] belongs below 100 nM; to `N=C(N)c1csc(CNC(=O)[C@@H]2C[C@@H](C(F)F)CN2C(=O)CNC(=O)c2ccc(Oc3ccccc3)cc2)c1` [Compound 151, (2S,4R)-N-((4-carbamimidoylthiophen-2-yl)methyl)-4-(difluoromethyl)-1-((4-phenoxybenzoyl)glycyl)pyrrolidine-2-carboxamide], below 100 nM. Turning to `C[C@@H](NC(=O)[C@@H]1C[C@]2(C)C[C@@H]2N1C(=O)CNC(=O)c1ccc(Oc2ccccc2)cc1)c1cc(C(=N)N)cs1` (single isomer, unassigned) [Compound 49, (1S,3S,5S)-N-((R*)-1-(4-carbamimidoylthiophen-2-yl)ethyl)-5-methyl-2-((4-phenoxy-benzoyl)glycyl)-2-azabicyclo[3.1.0]hexane-3-carboxamide], the IC50 fell in the range of 100 to 1000 nM. To `COC[C@@]1(F)C[C@@H](C(=O)N[C@H](C)c2cc(C(=N)N)cs2)N(C(=O)CNC(=O)c2ccc(Oc3ccccc3)cc2)C1` [Compound 196, (2S,4R)-N-((R)-1-(4-carbamimidoylthiophen-2-yl)ethyl)-4-fluoro-4-(methoxymethyl)-1-((4-phenoxybenzoyl)glycyl)pyrrolidine-2-carboxamide] belongs below 100 nM. Take `C[C@@H](NC(=O)[C@@H]1C[C@@H](Oc2ccccc2)CN1C(=O)CNC(=O)c1ccc(Oc2ccccc2)cc1)c1cc(C(=N)N)cs1` [Compound 181, (2S,4R)-N-((R)-1-(4-carbamimidoylthiophen-2-yl)ethyl)-4-phenoxy-1-((4-phenoxybenzoyl)glycyl)pyrrolidine-2-carboxamide]: the IC50 is below 100 nM. Take `CC(=O)NCc1cc(C(=O)NCC(=O)N2[C@H]3C[C@@]3(C)C[C@H]2C(=O)NCc2cc(C(=N)N)cs2)ccc1Oc1ccccc1` [Compound 10]: the IC50 was below 100 nM. In the case of `COC[C@@H]1C[C@@H](C(=O)N[C@H](C)c2cc(C(=N)N)cs2)N(C(=O)CNC(=O)c2ccc(Oc3ccccc3)cc2)C1` [Compound 253, (2S,4R)-N-((R)-1-(4-carbamimidoylthiophen-2-yl)ethyl)-4-(methoxymethyl)-1-((4-phenoxybenzoyl)glycyl)pyrrolidine-2-carboxamide], the IC50 was below 100 nM. To `C[C@@]12C[C@@H]1N(C(=O)CNC(=O)c1ccc(Oc3ccccc3)cc1)[C@H](C(=O)NCc1cc(/C(N)=N/S(C)(=O)=O)cs1)C2` [Compound 13, (1S,3S,5S)-5-methyl-N-((4-((Z)-N′-(methylsulfonyl)carbamimidoyl)thiophen-2-yl)-methyl)-2-((4-phenoxybenzoyl)glycyl)-2-azabicyclo[3.1.0]hexane-3-carboxamide] belongs above 1000 nM. To `C[C@@]12C[C@@H]1N(CCNC(=O)CCCOc1ccccc1)[C@H](C(=O)NCc1cc(C(=N)N)cs1)C2` [Compound 134, (1S,3S,5S)-N-((4-carbamimidoylthiophen-2-yl)methyl)-5-methyl-2-(2-(4-phenoxybutanamido)ethyl)-2-azabicyclo[3.1.0]hexane-3-carboxamide] belongs above 1000 nM; to `COCCCC(=O)NCC(=O)N1[C@H]2C[C@@]2(C)C[C@H]1C(=O)NCc1cc(C(=N)N)cs1` [Compound 75, (1S,3S,5S)-N-((4-carbamimidoylthiophen-2-yl)methyl)-2-((4-methoxybutanoyl)-glycyl)-5-methyl-2-azabicyclo[3.1.0]hexane-3-carboxamide], 100 to 1000 nM; to `N=C(N)c1csc(CNC(=O)[C@@H]2CC3(CN2C(=O)CNC(=O)CCCOc2ccnc(F)c2)OCCO3)c1` [Compound 206, (S)-N-((4-carbamimidoylthiophen-2-yl)methyl)-7-((4-((2-fluoropyridin-4-yl)oxy)butanoyl)glycyl)-1,4-dioxa-7-azaspiro[4.4]nonane-8-carboxamide], below 100 nM. For the molecule `CNC(=O)C(NC(=O)[C@@H]1C[C@@H](OC(F)F)CN1C(=O)CNC(=O)c1ccc(Oc2ccccc2)cc1)c1cc(C(=N)N)cs1` (stereo partly drawn) [Compound 210, (2S,4R)-N-(1-(4-carbamimidoylthiophen-2-yl)-2-(methylamino)-2-oxoethyl)-4-(difluoromethoxy)-1-((4-phenoxybenzoyl)glycyl)pyrrolidine-2-carboxamide], the IC50 was above 1000 nM. To `CCOC(=O)c1ccc(OCCCC(=O)NCC(=O)N2[C@H]3C[C@@]3(C)C[C@H]2C(=O)NCc2cc(C(=N)N)cs2)cc1` [Compound 79, Ethyl 4-(4-((2-((1S,3S,5S)-3-(((4-carbamimidoylthiophen-2-yl)methyl)carbamoyl)-5-methyl-2-azabicyclo[3.1.0]hexan-2-yl)-2-oxoethyl)amino)-4-oxobutoxy)benzoate] belongs below 100 nM; to `N=C(N)c1csc(CNC(=O)[C@@H]2C[C@H](C3CCCCC3)CN2C(=O)CNC(=O)CCCOc2ccccc2)c1` [Compound 242, (2S,4R)-N-((4-carbamimidoylthiophen-2-yl)methyl)-4-cyclohexyl-1-((4-phenoxybutanoyl)glycyl)pyrrolidine-2-carboxamide], below 100 nM. With `C[C@@]12C[C@@H]1N(C(=O)CNC(=O)c1cccc(Oc3ccccc3)c1)[C@H](C(=O)NCc1cc(C(=N)N)cs1)C2` [Compound 137, (1S,3S,5S)-N-((4-carbamimidoylthiophen-2-yl)methyl)-5-methyl-2-((3-phenoxbenzoyl)glycyl)-2-azabicyclo[3.1.0]hexane-3-carboxamide], the IC50 is below 100 nM. Take `N=C(N)c1ccc(CNC(=O)[C@@H]2CC3(CN2C(=O)CNC(=O)c2ccc(Oc4ccccc4)cc2)OCCO3)cn1` [Compound 71, (S)-N-((6-carbamimidoylpyridin-3-yl)methyl)-7-((4-phenoxybenzoyl)glycyl)-1,4-dioxa-7-azaspiro[4.4]nonane-8-carboxamide]: the IC50 was below 100 nM.

Take `COC[C@@]1(F)C[C@@H](C(=O)N[C@H](C)c2cc(C(=N)N)cs2)N(C(=O)CNC(=O)CCCOc2ccccc2)C1` [Compound 149, (2S,4R)-N-((R)-1-(4-carbamimidoylthiophen-2-yl)ethyl)-4-fluoro-4-(methoxymethyl)-1-((4-phenoxybutanoyl)glycyl)pyrrolidine-2-carboxamide]: the IC50 is below 100 nM. To `N=C(N)c1csc(CNC(=O)[C@@H]2C[C@H](c3ccccc3)CN2C(=O)CNC(=O)CCCOc2ccccc2)c1` [Compound 157, (2S,4R)-N-((4-carbamimidoylthiophen-2-yl)methyl)-1-((4-phenoxybutanoyl)glycyl)-4-phenylpyrrolidine-2-carboxamide] belongs below 100 nM; to `CCCCCCOC(=O)/N=C(\N)c1csc(CNC(=O)[C@@H]2C[C@]3(C)C[C@@H]3N2C(=O)CNC(=O)c2ccc(Oc3ccccc3)cc2)c1` [Compound 12, hexyl ((Z)-amino(5-(((1S,3S,5S)-5-methyl-2-((4-phenoxybenzoyl)glycyl)-2-azabicyclo-[3.1.0]hexane-3-carboxamido)methyl)thiophen-3-yl)methylene)carbamate], above 1000 nM; to `N=C(N)c1csc(CNC(=O)[C@@H]2C[C@@H](C(F)F)CN2C(=O)CNC(=O)CCCOc2ccccc2)c1` [Compound 147, (2S,4R)-N-((4-carbamimidoylthiophen-2-yl)methyl)-4-(difluoromethyl)-1-((4-phenoxybutanoyl)glycyl)pyrrolidine-2-carboxamide], 100 to 1000 nM. To `C[C@@]12C[C@@H]1N(C(=O)CNC(=O)c1ccc(Oc3ccccc3)nc1)[C@H](C(=O)NCc1cc(C(=N)N)cs1)C2` [Compound 143, (1S,3S,5S)-N-((4-carbamimidoylthiophen-2-yl)methyl)-5-methyl-2-((6-phenoxynicotinoyl)glycyl)-2-azabicyclo[3.1.0]hexane-3-carboxamide] belongs below 100 nM.

The values are drawn from patent publication US20250171423A1, “PHARMACEUTICAL COMPOUNDS FOR THE TREATMENT OF COMPLEMENT MEDIATED DISORDERS” (Achillion Pharmaceuticals, Inc., priority 2020, published 2025).
